# Results as given in publication PMC10147685, “Safety, tolerability, and pharmacokinetics of Aurora kinase B inhibitor AZD2811: a phase 1 dose-finding study in patients with advanced solid tumours” (British Journal of Cancer, 2023).
# Experiments:
# [1] = system: animal models of SCLC and diffuse large B-cell lymphoma (DLBCL); parameters: method as in PMID 26865565, PMID 30872381; details: at half the dose intensity of barasertib; cited from earlier work
# [2] = system: patients with advanced solid tumours; experiment: Phase 1 dose-escalation: safety, DLTs, AEs (CTCAE v4.03); type: in vivo
# Protocol: AZD2811 was administered as an IV infusion over 2 h. The study included 12 dose-escalation cohorts. In Cohorts 1–6, dosing took place on Days 1 and 4 of a 28-day cycle, at 15 mg, 25 mg, 38 mg, 51 mg, 100 mg, and 200 mg. In Cohort 1, the starting dose was to be administered to a single patient on Days 1 and 4. […] Starting with Cohort 2, at least 3 evaluable patients were enrolled at each dose level (3 + 3 design) and were evaluated for 1 cycle before escalation to the next dose level. If one patient experienced a DLT, an additional 3 patients were treated with the same dose. Therefore, a maximum of 6 evaluable patients could be enrolled per dose level.
# In Cohort 7, the Day 4 dose was removed from the schedule, and patients received AZD2811 200 mg on Day 1 of a 28-day cycle. Granulocyte colony-stimulating factor (G-CSF; filgrastim [short-acting G-CSF] or pegfilgrastim [long-acting G-CSF]) as primary prophylaxis for neutropenia was optional in Cohorts 7–9. In Cohorts 8–12, the cycle length was reduced, so dosing occurred on Day 1 of a 21-day cycle, at doses of 200–600 mg. Patients in Cohorts 10–12 received mandatory G-CSF on Day 8 after dosing in Cycle 1 as primary prophylaxis for neutropenia. PEGylated G-CSF (e.g. pegfilgrastim) could not be given later than Day 8 (in a 21-day cycle) due to its long half-life. G-CSF had to be discontinued at least 48 h prior to the next dose of AZD2811.
# A DLT was defined as any of the following toxicities that occurred during the DLT evaluation period (the first 28 days [if a 28-day cycle] or the first 21 days [if a 21-day cycle] from the start of AZD2811), unless unequivocally due to underlying malignancy or an extraneous cause: grade 4 neutropenia for >7 days or febrile neutropenia; grade 4 thrombocytopenia or grade 3 thrombocytopenia associated with bleeding; concurrent grade ≥3 elevation of total bilirubin, alanine aminotransferase (ALT), aspartate aminotransferase (AST) or alkaline phosphatase (ALP) lasting >48 h, or any change in liver function test results consistent with Hy’s Law; any grade ≥3 non-haematological AE (except grade 3 nausea, vomiting, stomatitis and/or diarrhoea that was controlled within 4 days with standard supportive care, or grade 3 elevations in ALT/AST that return to meet initial eligibility criteria within 7 days of study drug interruption); inability to receive all doses in Cycle 1 due to treatment-related toxicity; or grade ≥2 non-haematological toxicity at any time during treatment that was deemed to be dose-limiting by the investigator and the medical monitor.
# (§1) AEs were assessed throughout the treatment and follow-up periods. Patients were followed until all treatment-related toxicity resolved, or for at least 30 days post-study drug discontinuation. AEs were graded according to CTCAE v4.03. Venous blood samples (4 mL) for measurement of AZD2811 concentrations were collected at Cycle 1 Days 1–6, 8, 15, 16, and 22 and Cycle 2 Day 1 in Cohorts 1–6; Cycle 1 Days 1, 4, 8, 12, and 22 in Cohort 7; Cycle 1 Days 1, 4, 8, 12, and 15 and Cycle 2 Day 1 in Cohorts 8–12. Tumour imaging assessments using computed tomography or magnetic resonance imaging of the chest and abdomen/pelvis were performed at screening (≤28 days prior to initiation of treatment), and then every 2 cycles.
# The safety analysis set comprised all patients who received at least one dose of AZD2811. The PK analysis set comprised all patients who received at least one dose of AZD2811 with at least one reportable concentration. […] There was no formal statistical analysis of safety and efficacy data. The numbers of patients experiencing each AE were summarised by Medical Dictionary for Regulatory Activities (MedDRA) version 22.1 system organ class, MedDRA preferred term, and CTCAE grade. The ORR and best overall response based on RECIST 1.1 were summarised. AZD2811 blood concentrations and derived PK parameters were summarised by dose regimen. […]
# [3] = system: advanced solid tumours; experiment: Preliminary antitumour activity (RECIST v1.1 best overall response); type: in vivo, human
# Protocol: as §1
# The primary objective was to evaluate the safety profile and determine the MTD/RP2D and schedule of AZD2811 by assessing the incidence of DLTs, AEs, and abnormal laboratory test results. Secondary objectives were evaluation of PK parameters and preliminary assessment of antitumour activity, including objective response rate (ORR [complete response + partial response (CR + PR)]) based on RECIST v1.1, and incidence of best overall response, stable disease (SD) and progressive disease (PD).
# The safety analysis set comprised all patients who received at least one dose of AZD2811. The PK analysis set comprised all patients who received at least one dose of AZD2811 with at least one reportable concentration. […] There was no formal statistical analysis of safety and efficacy data. The numbers of patients experiencing each AE were summarised by Medical Dictionary for Regulatory Activities (MedDRA) version 22.1 system organ class, MedDRA preferred term, and CTCAE grade. The ORR and best overall response based on RECIST 1.1 were summarised. AZD2811 blood concentrations and derived PK parameters were summarised by dose regimen. Summary statistics were calculated for area under the curve (AUC), time of maximum concentration (tmax), and maximum concentration after a single dose (Cmax).
# [4] = system: LS- or ES-SCLC; details: cited from earlier work
smiles,measurement,setting,value
"CCN(CCO)CCCOc1ccc2c(Nc3cc(CC(=O)Nc4cccc(F)c4)n[nH]3)ncnc2c1 [AZD2811, AZD1152 hydroxyquinazoline pyrazole anilide]",Efficacy and toxicity compared with barasertib,[1],greater efficacy and less toxicity
same,MTD/RP2D,[2]; Day 1 of a 21-day cycle with mandatory G-CSF on Day 8,500 mg
same,"Dose reduction due to AZD2811-related AEs, patients","[2]; human, in vivo",4.5%
same,"Dose reductions due to AZD2811-related AEs, patients","[2]; human, in vivo",17.2%
same,Doses at which ANC counts <500 cells/μL were observed,"[2]; human, in vivo",≥ 200 mg/cycle
same,Doses that elicit a pharmacological response in bone marrow,"[2]; human, in vivo",> 200 mg/cycle
same,Neutropenia,[2]; in vivo,not observed
same,Patients with dose-limiting toxicities,[2]; in vivo,Five
same,Deaths due to AEs on treatment,"[2]; not considered related to AZD2811: cardiac arrest (Cohort 9), sepsis (Cohort 11)",Two
same,Duration of SD,[3]; 1 patient with cancer of pancreaticobiliary origin in Cohort 8,66 weeks
same,Treatment discontinuation due to progressive disease,[3]; Cohorts 1–6,83.3%
same,Treatment discontinuation due to progressive disease,[3]; Cohorts 7–12,81.5%
same,Best overall response: Not evaluable,[3]; Total (N = 51),5 (9.8) n (%)
same,"Best overall response: Not evaluable, Incomplete post-baseline assessments",[3]; Total (N = 51),4 (7.8) n (%)
same,"Best overall response: Not evaluable, Stable disease <2 cycles",[3]; Total (N = 51),1 (2.0) n (%)
same,Best overall response: Progressive disease,[3]; Total (N = 51),22 (43.1) n (%)
same,"Best overall response: Progressive disease, Death",[3]; Total (N = 51),3 (5.9) n (%)
same,"Best overall response: Progressive disease, RECIST progression",[3]; Total (N = 51),19 (37.3) n (%)
same,Best overall response: Stable disease ≥2 cycles,"[3]; Total (N = 51), two cycles = 56 days in 28-day cycles, 42 days in 21-day cycles",23 (45.1) n (%)
same,Complete responses (CRs),[3]; all cohorts,no CRs
same,"Best overall response: partial response, patients","[3]; all cohorts, n = 1 of 51",2.0%
same,Best overall response: Partial response,"[3]; evaluable-for-efficacy analysis set, Total (N = 51), all cohorts",1 (2.0) n (%)
same,Longest duration of therapy,"[3]; patient with adenocarcinoma of the breast in Cohort 7, best overall response SD",> 17 months
same,Reduction from baseline in sum of target lesion diameters,[3]; patient with prostate cancer in Cohort 6 with a PR,80%
same,Patients with SD,"[4]; 200 mg AZD2811 on Days 1 and 4 every 28 days, 5/15 patients",33.3%
same,Objective responses,"[4]; 200 mg AZD2811 on Days 1 and 4 every 28 days, 15 patients",no objective responses
same,"Septic shock due to pneumonia with grade 4 neutropenia, patients","[4]; without prophylactic G-CSF, 1 of 15 patients",6.7%
same,"Febrile neutropenia, patients","[4]; without prophylactic G-CSF, 6 of 15 patients",40.0%
same,"Target-related grade ≥3 neutropenia, patients","[4]; without prophylactic G-CSF, 9/15 patients",60.0%
